Tested on: human T cells
Assay: IL-2 induced human T cell proliferation assay (Celltiter Glo)
Details: HT, 72 h, read-out: IC50 (nM), human T cell proliferation
Description: The purpose of this example is to assay the activity of the compound in the JAK cell activity assay-human T cell proliferation assay.

**Q.** With `CCc1cc(O)c(F)cc1-c1ccc2c(-c3nc4c([nH]3)CN(C(=O)N3CC[C@H](O)C3)C4)n[nH]c2c1` [Compound of formula (I), (S)-(2-(6-(2-ethyl-5-fluoro-4-hydroxyphenyl)-1H-indazol-3-yl)-4,6-dihydropyrrolo[3,4-d]imidazol-5-(1H)-yl) (3-hydroxy pyrrolidin-1-yl) ketone] as the molecule, how does the IC50 read?
**A.** 13 nM
